Data from US10485235B2, “Aryloxypyrimidinyl ethers as herbicides” (FMC Corporation, priority 2015, dated 2019).

Each compound was assayed on barnyardgrass (Echinochloa crus-galli) (assay: Test A preemergence, barnyardgrass). Conditions: Preemergence, 31 g ai/ha; 0 to 100 scale (0 no effect, 100 complete control).
Assay type: in vivo
Description: (§1) Seeds of plant species selected from barnyardgrass (Echinochloa crus-galli), kochia (Kochia scoparia), ragweed (common ragweed, Ambrosia elatior), ryegrass, Italian (Italian ryegrass, Lolium multiflorum), foxtail, giant (giant foxtail, Setaria faberii), and pigweed (Amaranthus retroflexus), were planted into a blend of loam soil and sand and treated preemergence with a directed soil spray using test chemicals formulated in a non-phytotoxic solvent mixture which included a surfactant.
(§2) At the same time, plants selected from these weed species and also wheat (Triticum aestivum), corn (Zea mays), blackgrass (Alopecurus myosuroides), and galium (catchweed bedstraw, Galium aparine), were planted in pots containing the same blend of loam soil and sand and treated with postemergence applications of test chemicals formulated in the same manner. Plants ranged in height from 2 to 10 cm and were in the one- to two-leaf stage for the postemergence treatment. Treated plants and untreated controls were maintained in a greenhouse for approximately 10 days, after which time all treated plants were compared to untreated controls and visually evaluated for injury. Plant response ratings, summarized in Table A, are based on a 0 to 100 scale where 0 is no effect and 100 is complete control. A dash (—) response means no test result.

SMILES | Plant response rating, Barnyardgrass
N#Cc1cccc(Oc2ncc(Cl)cn2)c1OCCCF [Compound 15] | 0

Same assay, conditions: Preemergence, 125 g ai/ha; 0 to 100 scale (0 no effect, 100 complete control)

SMILES | Plant response rating, Barnyardgrass
N#Cc1cccc(Oc2ncc(Cl)cn2)c1OCCCF [Compound 15] | 20

These compounds were tested on kochia (Kochia scoparia) (assay: Test A preemergence, kochia). Conditions: Preemergence, 31 g ai/ha; 0 to 100 scale (0 no effect, 100 complete control).
Assay type: in vivo
Description: as §1, §2

SMILES | Plant response rating, Kochia
N#Cc1cccc(Oc2ncc(Cl)cn2)c1OCCCF [Compound 15] | 50

Same assay, conditions: Preemergence, 125 g ai/ha; 0 to 100 scale (0 no effect, 100 complete control)

SMILES | Plant response rating, Kochia
N#Cc1cccc(Oc2ncc(Cl)cn2)c1OCCCF [Compound 15] | 100

The compounds below were run on ragweed (common ragweed, Ambrosia elatior) (assay: Test A preemergence, ragweed). Conditions: Preemergence, 31 g ai/ha; 0 to 100 scale (0 no effect, 100 complete control).
Assay type: in vivo
Description: as §1, §2

SMILES | Plant response rating, Ragweed
N#Cc1cccc(Oc2ncc(Cl)cn2)c1OCCCF [Compound 15] | 0

Same assay, conditions: Preemergence, 125 g ai/ha; 0 to 100 scale (0 no effect, 100 complete control)

SMILES | Plant response rating, Ragweed
N#Cc1cccc(Oc2ncc(Cl)cn2)c1OCCCF [Compound 15] | 0

What follows are compounds tested on ryegrass, Italian (Italian ryegrass, Lolium multiflorum) (assay: Test A preemergence, Italian ryegrass). Conditions: Preemergence, 31 g ai/ha; 0 to 100 scale (0 no effect, 100 complete control).
Assay type: in vivo
Description: as §1, §2

SMILES | Plant response rating, Ryegrass, Italian
N#Cc1cccc(Oc2ncc(Cl)cn2)c1OCCCF [Compound 15] | 0

Same assay, conditions: Preemergence, 125 g ai/ha; 0 to 100 scale (0 no effect, 100 complete control)

SMILES | Plant response rating, Ryegrass, Italian
N#Cc1cccc(Oc2ncc(Cl)cn2)c1OCCCF [Compound 15] | 10

These compounds were tested on foxtail, giant (giant foxtail, Setaria faberii) (assay: Test A preemergence, giant foxtail). Conditions: Preemergence, 31 g ai/ha; 0 to 100 scale (0 no effect, 100 complete control).
Assay type: in vivo
Description: as §1, §2

SMILES | Plant response rating, Foxtail, Giant
N#Cc1cccc(Oc2ncc(Cl)cn2)c1OCCCF [Compound 15] | 30

Same assay, conditions: Preemergence, 125 g ai/ha; 0 to 100 scale (0 no effect, 100 complete control)

SMILES | Plant response rating, Foxtail, Giant
N#Cc1cccc(Oc2ncc(Cl)cn2)c1OCCCF [Compound 15] | 90

The compounds below were run on pigweed (Amaranthus retroflexus) (assay: Test A preemergence, pigweed). Conditions: Preemergence, 31 g ai/ha; 0 to 100 scale (0 no effect, 100 complete control).
Assay type: in vivo
Description: as §1, §2

SMILES | Plant response rating, Pigweed
N#Cc1cccc(Oc2ncc(Cl)cn2)c1OCCCF [Compound 15] | 100

Same assay, conditions: Preemergence, 125 g ai/ha; 0 to 100 scale (0 no effect, 100 complete control)

SMILES | Plant response rating, Pigweed
N#Cc1cccc(Oc2ncc(Cl)cn2)c1OCCCF [Compound 15] | 100

What follows are compounds tested on barnyardgrass (Echinochloa crus-galli) (assay: Test A postemergence, barnyardgrass). Conditions: 31 g ai/ha, postemergence; 0 to 100 scale, 0 is no effect, 100 is complete control; approximately 10 days.
Assay type: in vivo
Description: as §1, §2

SMILES | Plant response rating, Barnyardgrass
N#Cc1cccc(Oc2ncc(Cl)cn2)c1OCCCF [Compound 15] | 60

Same assay, conditions: 125 g ai/ha, postemergence; 0 to 100 scale, 0 is no effect, 100 is complete control; approximately 10 days

SMILES | Plant response rating, Barnyardgrass
N#Cc1cccc(Oc2ncc(Cl)cn2)c1OCCCF [Compound 15] | 90

What follows are compounds tested on kochia (Kochia scoparia) (assay: Test A postemergence, kochia). Conditions: 31 g ai/ha, postemergence; 0 to 100 scale, 0 is no effect, 100 is complete control; approximately 10 days.
Assay type: in vivo
Description: as §1, §2

SMILES | Plant response rating, Kochia
N#Cc1cccc(Oc2ncc(Cl)cn2)c1OCCCF [Compound 15] | 50

Same assay, conditions: 125 g ai/ha, postemergence; 0 to 100 scale, 0 is no effect, 100 is complete control; approximately 10 days

SMILES | Plant response rating, Kochia
N#Cc1cccc(Oc2ncc(Cl)cn2)c1OCCCF [Compound 15] | 80

Each compound was assayed on ragweed (common ragweed, Ambrosia elatior) (assay: Test A postemergence, ragweed). Conditions: 31 g ai/ha, postemergence; 0 to 100 scale, 0 is no effect, 100 is complete control; approximately 10 days.
Assay type: in vivo
Description: as §1, §2

SMILES | Plant response rating, Ragweed
N#Cc1cccc(Oc2ncc(Cl)cn2)c1OCCCF [Compound 15] | 0

Same assay, conditions: 125 g ai/ha, postemergence; 0 to 100 scale, 0 is no effect, 100 is complete control; approximately 10 days

SMILES | Plant response rating, Ragweed
N#Cc1cccc(Oc2ncc(Cl)cn2)c1OCCCF [Compound 15] | 20

Each compound was assayed on ryegrass, Italian (Italian ryegrass, Lolium multiflorum) (assay: Test A postemergence, Italian ryegrass). Conditions: 31 g ai/ha, postemergence; 0 to 100 scale, 0 is no effect, 100 is complete control; approximately 10 days.
Assay type: in vivo
Description: as §1, §2

SMILES | Plant response rating, Ryegrass, Italian
N#Cc1cccc(Oc2ncc(Cl)cn2)c1OCCCF [Compound 15] | 0

Same assay, conditions: 125 g ai/ha, postemergence; 0 to 100 scale, 0 is no effect, 100 is complete control; approximately 10 days

SMILES | Plant response rating, Ryegrass, Italian
N#Cc1cccc(Oc2ncc(Cl)cn2)c1OCCCF [Compound 15] | 10

These compounds were tested on foxtail, giant (giant foxtail, Setaria faberii) (assay: Test A postemergence, giant foxtail). Conditions: 31 g ai/ha, postemergence; 0 to 100 scale, 0 is no effect, 100 is complete control; approximately 10 days.
Assay type: in vivo
Description: as §1, §2

SMILES | Plant response rating, Foxtail, Giant
N#Cc1cccc(Oc2ncc(Cl)cn2)c1OCCCF [Compound 15] | 10

Same assay, conditions: 125 g ai/ha, postemergence; 0 to 100 scale, 0 is no effect, 100 is complete control; approximately 10 days

SMILES | Plant response rating, Foxtail, Giant
N#Cc1cccc(Oc2ncc(Cl)cn2)c1OCCCF [Compound 15] | 30

These compounds were tested on pigweed (Amaranthus retroflexus) (assay: Test A postemergence, pigweed). Conditions: 31 g ai/ha, postemergence; 0 to 100 scale, 0 is no effect, 100 is complete control; approximately 10 days.
Assay type: in vivo
Description: as §1, §2

SMILES | Plant response rating, Pigweed
N#Cc1cccc(Oc2ncc(Cl)cn2)c1OCCCF [Compound 15] | 60

Same assay, conditions: 125 g ai/ha, postemergence; 0 to 100 scale, 0 is no effect, 100 is complete control; approximately 10 days

SMILES | Plant response rating, Pigweed
N#Cc1cccc(Oc2ncc(Cl)cn2)c1OCCCF [Compound 15] | 70

The compounds below were run on wheat (Triticum aestivum) (assay: Test A postemergence, wheat). Conditions: 31 g ai/ha, postemergence; 0 to 100 scale, 0 is no effect, 100 is complete control; approximately 10 days.
Assay type: in vivo
Description: as §1, §2

SMILES | Plant response rating, Wheat
N#Cc1cccc(Oc2ncc(Cl)cn2)c1OCCCF [Compound 15] | 0

Same assay, conditions: 125 g ai/ha, postemergence; 0 to 100 scale, 0 is no effect, 100 is complete control; approximately 10 days

SMILES | Plant response rating, Wheat
N#Cc1cccc(Oc2ncc(Cl)cn2)c1OCCCF [Compound 15] | 0

The compounds below were run on corn (Zea mays) (assay: Test A postemergence, corn). Conditions: 31 g ai/ha, postemergence; 0 to 100 scale, 0 is no effect, 100 is complete control; approximately 10 days.
Assay type: in vivo
Description: as §1, §2

SMILES | Plant response rating, Corn
N#Cc1cccc(Oc2ncc(Cl)cn2)c1OCCCF [Compound 15] | 10

Same assay, conditions: 125 g ai/ha, postemergence; 0 to 100 scale, 0 is no effect, 100 is complete control; approximately 10 days

SMILES | Plant response rating, Corn
N#Cc1cccc(Oc2ncc(Cl)cn2)c1OCCCF [Compound 15] | 10

What follows are compounds tested on blackgrass (Alopecurus myosuroides) (assay: Test A postemergence, blackgrass). Conditions: 31 g ai/ha, postemergence; 0 to 100 scale, 0 is no effect, 100 is complete control; approximately 10 days.
Assay type: in vivo
Description: as §1, §2

SMILES | Plant response rating, Blackgrass
N#Cc1cccc(Oc2ncc(Cl)cn2)c1OCCCF [Compound 15] | 0

Same assay, conditions: 125 g ai/ha, postemergence; 0 to 100 scale, 0 is no effect, 100 is complete control; approximately 10 days

SMILES | Plant response rating, Blackgrass
N#Cc1cccc(Oc2ncc(Cl)cn2)c1OCCCF [Compound 15] | 10

Each compound was assayed on galium (catchweed bedstraw, Galium aparine) (assay: Test A postemergence, galium). Conditions: 31 g ai/ha, postemergence; 0 to 100 scale, 0 is no effect, 100 is complete control; approximately 10 days.
Assay type: in vivo
Description: as §1, §2

SMILES | Plant response rating, Galium
N#Cc1cccc(Oc2ncc(Cl)cn2)c1OCCCF [Compound 15] | 20

Same assay, conditions: 125 g ai/ha, postemergence; 0 to 100 scale, 0 is no effect, 100 is complete control; approximately 10 days

SMILES | Plant response rating, Galium
N#Cc1cccc(Oc2ncc(Cl)cn2)c1OCCCF [Compound 15] | 50
